Laboratory results from publication PMC4601023, “Novel anticancer agent, SQAP, binds to focal adhesion kinase and modulates its activity” (Scientific Reports, 2015).

Experiments:
[1] = system: Akt phosphorylation at S473 in HUVEC; experiment: Akt phosphorylation in HUVEC, Western blotting; format: cell-based, human; details: treated for 21 h, 10 µM
Source text: Furthermore, we looked at FAK signaling pathway to validate our results. Paxillin binds to FAK 919–938 residues which is a sequence contained within the region where SQAP is predicted to bind. Binding between paxillin and FAK results in paxillin phosphorylation at Y118[35][36]. Thus, we examined paxillin phosphorylation. […] Additionally, we studied Akt phosphorylation at S473 on account of FAK is a known factor in control of Akt activity. We observed that Akt phosphorylation was diminished when treated with SQAP or SQMG for 21 h (see Supplementary Fig. S3).
Cells were harvested and solubilized in RIPA buffer (20 mM Tris-HCl, pH 7.5, 1% Sodium deoxycholate, 150 mM NaCl, 5 mM EDTA, 1% Triton X-100, 0.1% SDS, 0.1%, 1 mM PMSF, 1 mM vanadate and 1 μg/mL leupeptin). Protein quantification was determined using the DC protein assay kit (Bio-Rad, Hercules, CA, USA). A total of 15 μg of each protein sample were separated by SDS–PAGE gels and blotted onto polyvinylidene difluoride membranes (Merck, Kenilworth, NJ, US). After blocking for 1 h with Blocking-One (Nacalai Tesque, Kyoto, Japan), proteins were detected by incubating the membranes with the primary antibody at 4 °C overnight (anti-Y397 2:2000, anti-Y925 5:2000 and anti-FAK 0.5:2000) followed by incubation with horseradish peroxidase-conjugated secondary antibodies at room temperature for 1 h (anti-mouse 0.5:2000 and anti-rabbit 0.4:2000). […]

SCP-2 (400–547) = biological target: T1, SCP-2 (400–547) (Homo sapiens, UniProt P22307); experiment: SPR analysis, immobilized His-tagged SCP-2 (400-547); format: binding; details: Biacore 3000, CM5 chip, 25 °C, read-out: dissociation constant (KD) for SCP-2
T1 construct: DNA encoding SCP-2 (400–547) was amplified; made in house; host or cells: E. coli Rosetta 2 (DE3) pLysS
Source text: SPR was utilized as an independent confirmation of the kinetic parameters between SQAP and the putative binding proteins. […] The recombinant proteins were then expressed in Escherichia coli and purified to homogeneity. In addition, full length, His-tagged ADRM1 and GST-tagged HR23B (GST-HR23B) were also used. The proteins were first immobilized on a CM5 sensor chip of the SPR biosensor (Biacore 3000). For GST-HR23B analysis, a GST protein was additionally immobilized and used as a control in order to eliminate possible nonspecific binding of SQAP. SQAP samples at different concentrations were then injected over the proteins immobilized on the sensor chip. As a negative control we used sulfoquynovosylpropanediol (SQP), which lacks the fatty acid moiety of SQAP (Fig. 1). […]
The binding kinetics of SCP-2, MFE-2, ADRM1, HR23B and FAK with SQAP and SQP were analyzed on a Biacore 3000 instrument (GE Healthcare, Little Chalfont, UK). […] The buffer of purified peptides was exchanged to HBS-P (150 mM NaCl, 0.005% Surfactant P20, 10 mM HEPES-NaOH pH 7.4) using a PD 10 column (GE Healthcare, Little Chalfont, UK) and the concentrations were quantified using DC protein assay kit (Bio-Rad Laboratories, Hercules, CA, USA). […] Kinetic parameters were determined by analyzing the data using BIAevaluation 4.1 software (GE Healthcare, Little Chalfont, UK).

HUVEC cells = experiment: WST-8 cell viability assay, HUVEC; format: cell-based, human; details: 17 h, SQAP 10 and 20 µM
Description: HUVEC and A549 cells were seeded into a 96-well culture plate (2 × 10^4 cells/well). The following day, cells were treated with SQAP or vehicle in a medium containing 1% FBS and VEGF (50 ng/mL) for 17 h (HUVEC) or fibronectin (10 μg/mL) for 46 h (A549). Cell viability was measured using Cell Count Reagent SF (Nacalai Tesque, Kyoto, Japan) following the manufacturer’s instructions. Briefly, 1/10 volume of the WST-8 solution was added to each well, and the plates were incubated at 37 °C for 1 h. Then, cell viability was determined colorimetrically by measuring OD450 using a microplate reader on a Wallac ARVO 5X microplate reader (Perkin Elmer, Waltham, MA, USA).
control SQAP 10 µM SQAP 20 µM
Livecellswere measured with SF reagent under similarconditionsas describedin thewound healing
assayinFig.5. (A)HUVEC and (B)A549 cells.
(also on this page, place not known: Cell viability (%) Cell viability (%) Live cells were similar conditions as described in the wound assay in Fig. 5. (A) HUVEC (B) A549)

[2] = system: paxillin phosphorylation at Y118 in A549; experiment: Paxillin phosphorylation in A549, Western blotting; format: cell-based, human; details: A549, 21 h treatment, 10 µM
Description: Fibronectin is a glycoprotein located in the extracellular matrix that binds to integrins. […] A549 lung cancer cells have been used before for studying cell migration because of their metastatic model potential. A549 cells are also one of the tumor cell lines sensitive to SQMG[9]. Therefore, we studied the phosphorylation of FAK in A549 cells (Fig. 5C,D). SQAP could inhibit the phosphorylation of FAK at Y397 and Y925 after 1 h treatment in a dose dependent manner. […] We also examined paxillin and Akt phosphorylation in A549 as downstream targets of FAK. […] We hypothesize that SQAP diminish on Akt phosphorylation being more readily in A549 cancer cells than in HUVEC endothelial cells might be due to a higher Akt basal activity on cancer cells.
Cells were harvested and solubilized in RIPA buffer (20 mM Tris-HCl, pH 7.5, 1% Sodium deoxycholate, 150 mM NaCl, 5 mM EDTA, 1% Triton X-100, 0.1% SDS, 0.1%, 1 mM PMSF, 1 mM vanadate and 1 μg/mL leupeptin). Protein quantification was determined using the DC protein assay kit (Bio-Rad, Hercules, CA, USA). A total of 15 μg of each protein sample were separated by SDS–PAGE gels and blotted onto polyvinylidene difluoride membranes (Merck, Kenilworth, NJ, US). […]

T1 sequence (P22307 400-547): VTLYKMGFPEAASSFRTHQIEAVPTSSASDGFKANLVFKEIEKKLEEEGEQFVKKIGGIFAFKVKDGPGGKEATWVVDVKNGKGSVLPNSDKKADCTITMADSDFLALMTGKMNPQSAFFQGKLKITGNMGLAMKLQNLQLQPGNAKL

Kd (SCP-2 (400–547)): 15.6 µM
Structure (SMILES): CCCCCCCCCCCCCCCCCC(=O)OCCCO[C@H]1O[C@H](CS(=O)(=O)O)[C@@H](O)[C@H](O)[C@H]1O [SQAP, sulfoquynovosylacylpropanediol]
Akt phosphorylation at S473 [1]: diminished
cytotoxicity (WST-8 cell viability) (HUVEC cells): noncytotoxic
paxillin phosphorylation at Y118 [2]: inhibition of paxillin phosphorylation at Y118 took 21 h treatment
